Test [1] concerns the target fungal (fACC2) (UniProt Q00955). The note with it: read-out: fACC2 (in vitro ACC2 Inhibition Assay, IC50), ADP-Glo, 5 nM ACC2, 20 μM ATP, 20 μM acetyl-CoA. (In general: ADP-Glo turns the ADP formed in a reaction into a luminescent signal.)
The subject of test [2] is Botrtyis cinerea (Bc). Description: Growth inhibition assay of fungal pathogens, Bc. The test is classed as cell-based. The note with it: 48 h, Botrtyis cinerea, read-out: Concentration at 90% Inhibition Bc. An outline of the steps: (§1)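 Inhibition percentages reflect 48 h OD600 and visual scores relative to a 2% DMSO control. Test concentrations were 50, 10, 2 ppm or 2, 0.4, 0.08 ppm final, applied to spores in 17% V8 medium.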

Test [3] has as its system Diplodia maydis (Dm). Description: Growth inhibition assay of fungal pathogens, Dm. The note with it: Stenocarpella maydis, 48 h, Diplodia maydis, read-out: Concentration at 90% Inhibition Dm. The test is classed as cell-based. The gist of the method:
as §1

In test [4] the test system is Rhizoctonia solani (Rs). Description: Growth inhibition assay of fungal pathogens, Rs. The test is classed as cell-based. The following applies: 48 h, mycelial plugs, read-out: Concentration at 90% Inhibition Rs.
For test [5], the system named is C. albicans. Description: Antifungal Activity Assay (broth microtiter MIC), C. albicans. It counts as cell-based, Candida albicans. The note with it: Candida albicans, ATCC90028, 48 h, ATCC 90028, 3 replicates, MIC recorded at 48 h, read-out: MIC, C. albicans ATCC 90028. The gist of the method:
(§2)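 MICs were scored by eye at 48 h relative to the growth control. Plates followed CLSI M27-A3, with Candida suspensions in RPMI 1640+MOPS giving a final 2.5×10^3 CFU/mL; the colonies came from Sabouraud agar grown overnight at 35 °C.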

Test [6] has as its system Septoria tritici (St). Briefly: Growth inhibition assay of fungal pathogens, St. It counts as cell-based. The note with it: Zymoseptoria tritici, 48 h, Septoria tritici, read-out: Concentration at 90% Inhibition St. The gist of the method:
as §1

Test [7] relates to C. krusei. Briefly: Antifungal Activity Assay (broth microtiter MIC), C. krusei. The test is classed as cell-based, Candida krusei. The note with it: Pichia kudriavzevii, ATCC6258, 48 h, ATCC 6258, 3 replicates, MIC recorded at 48 h, read-out: MIC, C. krusei ATCC 6258. An outline of the steps:
as §2

In test [8] the test system is C. parapsilosis. Briefly: Antifungal Activity Assay (broth microtiter MIC), C. parapsilosis. It counts as cell-based, Candida parapsilosis. The note with it: Lodderomyces parapsilosis, ATCC22019, 48 h, ATCC 22019, 3 replicates, MIC recorded at 48 h, read-out: MIC, C. parapsilosis ATCC 22019. The gist of the method:
as §2

Test [9] deals with Collectotrichum graminicola (Cg). Description: Growth inhibition assay of fungal pathogens, Cg. The note with it: 48 h, Collectotrichum graminicola, read-out: Concentration at 90% Inhibition Cg. The test is classed as cell-based. An outline of the steps:
as §1

Test [10] has as its system Fusarium moniliforme (Fm). Briefly: Growth inhibition assay of fungal pathogens, Fm. The test is classed as cell-based. The note with it: Fusarium verticillioides, 48 h, Fusarium moniliforme, read-out: Concentration at 90% Inhibition Fm. An outline of the steps:
as §1

The subject of test [11] is Fusarium virguliforme (Fv). Briefly: Growth inhibition assay of fungal pathogens, Fv. It counts as cell-based. The following applies: 48 h, read-out: Concentration at 90% Inhibition Fv. The gist of the method: as §1
Where [12] appears, read: growth inhibition at 48 hours vs 2% DMSO control.
Where [13] appears, read: growth inhibition vs 2% DMSO control at 48 hours.

Values after ≈ are worked out from the molar mass of the structure shown. Like-named read-outs stand apart in the source and are kept apart here. A value given as a limit tells only on which side of the number the result lay.

Chain of fungal (fACC2) (Q00955 whole entry): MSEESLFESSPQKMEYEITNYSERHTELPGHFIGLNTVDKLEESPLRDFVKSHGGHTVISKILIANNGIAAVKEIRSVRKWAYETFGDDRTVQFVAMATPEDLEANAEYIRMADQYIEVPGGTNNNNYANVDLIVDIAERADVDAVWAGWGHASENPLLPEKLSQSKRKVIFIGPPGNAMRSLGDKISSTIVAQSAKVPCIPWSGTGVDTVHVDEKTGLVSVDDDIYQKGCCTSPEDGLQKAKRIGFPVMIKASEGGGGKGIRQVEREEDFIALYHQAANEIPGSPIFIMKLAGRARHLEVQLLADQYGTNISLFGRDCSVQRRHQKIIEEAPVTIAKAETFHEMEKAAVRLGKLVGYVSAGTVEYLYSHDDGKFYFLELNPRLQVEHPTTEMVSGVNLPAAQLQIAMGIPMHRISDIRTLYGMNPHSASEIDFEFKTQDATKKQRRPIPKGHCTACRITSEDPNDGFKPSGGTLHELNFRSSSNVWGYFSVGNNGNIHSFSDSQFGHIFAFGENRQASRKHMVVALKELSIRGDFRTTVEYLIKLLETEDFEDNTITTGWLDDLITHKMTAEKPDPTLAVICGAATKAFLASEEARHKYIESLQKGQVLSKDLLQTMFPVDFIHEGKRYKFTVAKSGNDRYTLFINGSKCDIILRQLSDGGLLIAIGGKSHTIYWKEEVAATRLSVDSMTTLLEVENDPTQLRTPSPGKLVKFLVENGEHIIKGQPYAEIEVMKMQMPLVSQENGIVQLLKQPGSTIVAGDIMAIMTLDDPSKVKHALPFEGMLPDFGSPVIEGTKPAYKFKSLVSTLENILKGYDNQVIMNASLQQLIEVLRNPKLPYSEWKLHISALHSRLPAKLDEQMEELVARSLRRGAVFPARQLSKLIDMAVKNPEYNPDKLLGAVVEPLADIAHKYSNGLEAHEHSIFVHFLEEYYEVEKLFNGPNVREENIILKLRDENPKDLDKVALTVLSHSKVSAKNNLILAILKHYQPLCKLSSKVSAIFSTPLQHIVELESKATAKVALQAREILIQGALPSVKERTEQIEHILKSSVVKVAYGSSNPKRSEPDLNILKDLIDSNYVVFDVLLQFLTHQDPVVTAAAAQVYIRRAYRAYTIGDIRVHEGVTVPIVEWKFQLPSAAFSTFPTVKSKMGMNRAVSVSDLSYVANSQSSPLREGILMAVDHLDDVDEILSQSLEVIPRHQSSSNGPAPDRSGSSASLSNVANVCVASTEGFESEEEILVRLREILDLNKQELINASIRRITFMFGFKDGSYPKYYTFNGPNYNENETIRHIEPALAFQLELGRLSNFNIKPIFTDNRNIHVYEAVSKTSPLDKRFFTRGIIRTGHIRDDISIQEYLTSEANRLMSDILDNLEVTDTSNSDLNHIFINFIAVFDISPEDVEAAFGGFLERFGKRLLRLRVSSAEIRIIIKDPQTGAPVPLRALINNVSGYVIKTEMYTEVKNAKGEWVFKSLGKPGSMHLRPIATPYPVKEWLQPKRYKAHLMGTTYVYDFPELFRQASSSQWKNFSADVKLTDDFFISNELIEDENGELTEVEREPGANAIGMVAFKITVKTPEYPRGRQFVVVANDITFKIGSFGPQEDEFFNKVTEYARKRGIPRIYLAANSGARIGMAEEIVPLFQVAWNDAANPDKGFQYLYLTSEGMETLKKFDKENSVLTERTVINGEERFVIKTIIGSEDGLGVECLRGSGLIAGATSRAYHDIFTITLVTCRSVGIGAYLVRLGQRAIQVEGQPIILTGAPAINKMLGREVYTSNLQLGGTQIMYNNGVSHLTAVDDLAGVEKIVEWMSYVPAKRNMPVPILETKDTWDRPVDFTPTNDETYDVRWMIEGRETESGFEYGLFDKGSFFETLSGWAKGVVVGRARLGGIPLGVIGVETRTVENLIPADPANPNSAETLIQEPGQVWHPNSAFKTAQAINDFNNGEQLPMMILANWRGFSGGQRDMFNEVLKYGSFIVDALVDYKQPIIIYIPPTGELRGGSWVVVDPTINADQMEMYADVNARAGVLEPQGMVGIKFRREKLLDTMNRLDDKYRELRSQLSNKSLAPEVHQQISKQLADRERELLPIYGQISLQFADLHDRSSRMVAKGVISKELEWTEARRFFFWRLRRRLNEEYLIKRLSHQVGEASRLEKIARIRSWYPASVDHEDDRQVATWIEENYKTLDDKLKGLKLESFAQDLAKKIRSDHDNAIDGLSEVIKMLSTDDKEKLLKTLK

What is called IC50 is the concentration that inhibits the measured activity by half. The term MIC denotes the least concentration at which growth counts as inhibited. With `COCCO[C@@H](Cn1c(=O)n(C(C)C(=O)N2CCCC2)c(=O)c2c(C)c(-n3nccn3)sc21)c1cc(F)ccc1OC` (stereo partly drawn) [Compound I-64, 1-((R)-2-(5-fluoro-2-methoxyphenyl)-2-(2-methoxy-ethoxy)ethyl)-5-methyl-3-(1-oxo-1-(pyrrolidin-1-yl)propan-2-yl)-6-(2H-1,2,3-triazol-2-yl)thieno[2,3-d]pyrimidine-2,4(1H,3H)-dione], the IC50 in [1] (Table 2a) fell in the range of 1 to 5 nM; in [1] (Table 2b, additional results) it was 1 to 5 nM. Also, the IC90 was 2 µg/mL (≈ 3.33 µM) in test [2] (setting [12]); 2 µg/mL (≈ 3.33 µM) in [2] (setting [13]); 10 µg/mL (≈ 16.6 µM) in test [3] (setting [12]); more than 50 µg/mL in test [3] (setting [13]); 2 µg/mL (≈ 3.33 µM) in test [4] (setting [12]); 2 µg/mL (≈ 3.33 µM) in [4] (setting [13]). Further, the IC90 in test [6] (setting [12]) is more than 50 µg/mL; in test [6] (setting [13]), more than 50 µg/mL; in [9] (setting [12]), 10 µg/mL (≈ 16.6 µM); in test [9] (setting [13]) it was more than 50 µg/mL; in [10] (setting [12]), 0.4 µg/mL (≈ 0.666 µM); in test [10] (setting [13]), 0.4 µg/mL (≈ 0.666 µM). In addition, the IC90 in test [11] (setting [12]) and in test [11] (setting [13]) was 0.4 µg/mL (≈ 0.666 µM) in each case. In addition, the minimum inhibitory concentration (MIC) in test [5] (Table 3a) was in the range of 2.1 to 4 µg/mL (≈ 3.5 to 6.66 µM); in [5] (Table 3b (additional results)), 2.01 to 4 µg/mL (≈ 3.35 to 6.66 µM); in test [7] (Table 3a), 2.1 to 4 µg/mL (≈ 3.5 to 6.66 µM); in test [7] (Table 3b (additional results)) it was 2.01 to 4 µg/mL (≈ 3.35 to 6.66 µM); in test [8] (Table 3a), 2.1 to 4 µg/mL (≈ 3.5 to 6.66 µM); in test [8] (Table 3b (additional results)), 1.01 to 2 µg/mL (≈ 1.68 to 3.33 µM).
With `COCCO[C@@H](Cn1c(=O)n([C@H](C)C(=O)N2CCCC2)c(=O)c2c(C)c(-n3nccn3)sc21)c1cc(F)ccc1OC` [Compound I-65, 1-((R)-2-(5-fluoro-2-methoxyphenyl)-2-(2-methoxy-ethoxy)ethyl)-5-methyl-3-((R)-1-oxo-1-(pyrrolidin-1-yl)propan-2-yl)-6-(2H-1,2,3-triazol-2-yl)thieno[2,3-d]pyrimidine-2,4(1H,3H)-dione], the half-inhibitory concentration (IC50) in [1] (Table 2a) fell in the range of 0.4 to 1 nM; in test [1] (Table 2b, additional results), 0.3 to 1 nM. Further, the IC90 in test [2] (setting [12]) is 2 µg/mL (≈ 3.33 µM); in test [2] (setting [13]), 2 µg/mL (≈ 3.33 µM); in test [3] (setting [12]), 10 µg/mL (≈ 16.6 µM); in [3] (setting [13]), more than 50 µg/mL; in test [4] (setting [12]), 2 µg/mL (≈ 3.33 µM); in test [4] (setting [13]), 2 µg/mL (≈ 3.33 µM). Moreover, the IC90 was more than 50 µg/mL in test [6] (setting [12]); more than 50 µg/mL in [6] (setting [13]); 10 µg/mL (≈ 16.6 µM) in test [9] (setting [12]); more than 50 µg/mL in [9] (setting [13]); 0.4 µg/mL (≈ 0.666 µM) in test [10] (setting [12]); 0.4 µg/mL (≈ 0.666 µM) in [10] (setting [13]). The IC90 in test [11] (setting [12]) and in test [11] (setting [13]) was 0.4 µg/mL (≈ 0.666 µM) in each case. In addition, the MIC fell in the range of 2.1 to 4 µg/mL (≈ 3.5 to 6.66 µM) in test [5] (Table 3a); 2.01 to 4 µg/mL (≈ 3.35 to 6.66 µM) in test [5] (Table 3b (additional results)); 2.1 to 4 µg/mL (≈ 3.5 to 6.66 µM) in test [7] (Table 3a); 2.01 to 4 µg/mL (≈ 3.35 to 6.66 µM) in test [7] (Table 3b (additional results)); 2.1 to 4 µg/mL (≈ 3.5 to 6.66 µM) in test [8] (Table 3a); 1.01 to 2 µg/mL (≈ 1.68 to 3.33 µM) in [8] (Table 3b (additional results)).

The record behind these values is patent publication US10800791B2, “Triazole ACC inhibitors and uses thereof” (Gilead Apollo, LLC, priority 2015, dated 2020).
